Patent US9089603B2, “Fluorescent imaging with substituted cyanine dyes” (LI-COR, INC., priority 2010, dated 2015)
Blank lines part the entries; values can stand above or below the molecule they belong to.

What was measured:
[1] = Comparison of dye emission maxima and quenching; assay type: physicochemical; details: IRDye 800CW samples, excitation 770 nm; for Peak fluorescence emission intensity: PBS pH 7.4
Method: Solutions of dye-linker standards and dye-linker-quencher samples were diluted into PBS buffer (pH 7.4) to give a dye-specific absorbance less than 0.2 AU. The fluorescence spectra of each dilution were then taken at a consistent excitation wavelength (670 nm for HETD and 770 nm for IRDye 800CW). The emission spectra were collected from 680-1000 nm for the HETD samples and 780-1000 nm for the IRDye 800CW samples.

[2] = Photophysical properties (absorption, emission, fluorescence intensity, quantum yield) versus IRDye 800CW; assay type: physicochemical
[3] = IRDye 800CW used as standard; cited from earlier work
[4] = In vivo clearance imaging in nude mice (Pearl Impulse); details: 1 nmole; for Total (signal): 800 channel
Method: Two nude mice were injected with 1 nmole of either compound 16 or IRDye 800CW carboxylate. They were then imaged longitudinally over the next 24 h with the Pearl Impulse imaging system. The results are presented in FIG. 9: in vivo clearance in nudes (FIG. 9A), whole body dorsal views (FIG. 9B), and the rate of clearance (FIG. 9C). The clearance data is presented below in Table 4.

[5] = Absorption wavelength of the cyanine dyes in methanol (halo substitution effect); assay type: physicochemical; details: Table 2
From the text: [table] Design Principle: We analyzed the properties of a dye scaffold and related compounds and the corresponding substitution effects on the excitation and emission wavelengths. The small size of fluorine is unlikely to produce steric effects, therefore, we explored the electronic effects of fluorine and related substitutions. The Hammett equation (σ-value) is an important tool to understand the electronic effects of the substituents, therefore, we explored the correlation of the wavelength (λMeOH) and the σ-value (vide infra): […]

[6] = tested on: U87GM cells; experiment: Immunocytochemical binding, blocking and carboxylate control assay in U87GM cells; assay type: cell-based; details: tested up to 5 μM, noted above 2 μM
Method: RGD (Arg-Gly-Asp), the recognition motif used to bind the integrin receptors, was labeled with compound 17. The characteristics of RGD/17 conjugate and the analogous dye carboxylate 16 were evaluated in a cell-based assay.
Immunocytochemical assays provide a tool for screening a compound for specificity of a labeled agent. Binding assays give valuable information on affinity of the labeled agent to the intended target.
Compound 17 was conjugated to the peptide RGD by the general procedure set forth in Example 32.
The cell lines U87GM and PC3MLN4 were assayed. Assays included binding, blocking, and carboxylate control. Serial dilutions of compound 16 were prepared at concentrations of 200-6.25 nM. Blocking was accomplished with unlabeled RGD at concentrations of 10-0.31 μM with the addition of 200 nM compound 17-RGD conjugates in all test wells. The compound 16 was evaluated as a dye control for non-specific binding at relatively high levels from 5-0.16 μM with U87GM cells and 1-0.002 μM with PC3 cells.
In the second round of testing with U87GM cells, concentrations of unlabeled RGD and compound 17/RGD were increased (FIGS. 8A and 8B). Binding assay concentrations utilized 0.8-400 nM while the blocking assay used 0.06-30 μM unlabeled RGD with an addition of 200 nM 17/RGD.

Peak fluorescence emission intensity [1]: 1245060
Compound: CC1(C)C(/C=C/C2=C(Oc3ccc(S(=O)(=O)[O-])cc3)C(=C/C=C3/N(CCCCCC(=O)NCCOCCOCCOCCN=[N+]=[N-])c4ccc(S(=O)(=O)[O-])cc4C3(C)C)/CCC2)=[N+](CCCCS(=O)(=O)[O-])c2ccc(S(=O)(=O)[O-])cc21.[Na+].[Na+].[Na+] [Compound 29, sodium 2-((E)-2-((E)-3-((E)-2-(1-(1-azido-13-oxo-3,6,9-trioxa-12-azaoctadecan-18-yl)-3,3-dimethyl-5-sulfonatoindolin-2-ylidene)ethylidene)-2-(4-sulfonatophenoxy)cyclohex-1-enyl)vinyl)-3,3-dimethyl-1-(4-sulfonatobutyl)-3H-indolium-5-sulfonate]

Peak fluorescence emission intensity [1]: 519267
Compound: CC1(C)C(/C=C/C2=C(Oc3ccc(S(=O)(=O)[O-])cc3)C(=C/C=C3/N(CCCCS(=O)(=O)[O-])c4ccc(S(=O)(=O)[O-])cc4C3(C)C)/CCC2)=[N+](CCCCCC(=O)NCCCCCCNC(=O)CCCCC[N+]2=C(/C=C/C3=C(c4ccccc4F)C(=C/C=C4/N(CCCS(=O)(=O)[O-])c5ccc(N(CCCS(=O)(=O)[O-])CCCS(=O)(=O)[O-])cc5C4(C)C)/CCC3)C(C)(C)c3c2ccc2cc(S(=O)(=O)[O-])ccc32)c2ccc(S(=O)(=O)[O-])cc21.[Na+].[Na+].[Na+].[Na+].[Na+].[Na+] [Compound 37]
Percent Quenching ([1]; versus dye-linker standard): 61.4%

Compound: CC1(C)C(/C=C/C2=C(Oc3ccc(S(=O)(=O)[O-])cc3)C(=C/C=C3/N(CCCCS(=O)(=O)[O-])c4ccc(S(=O)(=O)[O-])cc4C3(C)C)/CCC2)=[N+](CCCCCC(=O)NCCOCCOCCOCCOCCOCCOCCOCCOCCOCCOCCOCCN)c2ccc(S(=O)(=O)[O-])cc21.O=C(O)C(F)(F)F.[Na+].[Na+].[Na+] [IRDye 800CW-PEG11-NH2]
Peak fluorescence emission intensity [1]: 1272820

Fl Intensity of X / Fl Intensity of 800 CW, Odyssey ([2]; 0.1 μM solutions in 1XPBS, Odyssey): 100%
Fl Intensity of X / Fl Intensity of 800 CW, Fluorimeter ([2]; 0.1 μM solutions in 1XPBS, fluorimeter): 100%
Abs Max PBS ([2]; in PBS): 775 nm
EmMax PBS ([2]; in PBS): 790 nm
Compound: CC1(C)C(=CC=C2CCCC(C=CC3=[N+](CCCCCC(=O)[O-])c4ccc(S(=O)(=O)[O-])cc4C3(C)C)=C2Oc2ccc(S(=O)(=O)[O-])cc2)N(CCCCS(=O)(=O)[O-])c2ccc(S(=O)(=O)[O-])cc21.[Na+].[Na+].[Na+].[Na+] [IRDye 800CW, reference compound]
Quantum Yield of the standard [3]: 0.07

Total (signal) ([4]; 1 Min): 109682.80
Total (signal) ([4]; 17 Min): 282046.59
Total (signal) ([4]; 45 Min): 286573.94
Total (signal) ([4]; 71 Min): 266647.59
Total (signal) ([4]; 190 Min): 139736.97
Total (signal) ([4]; 276 Min): 76493.30
Total (signal) ([4]; 1435 Min): 1652.69
Clearance in vivo ([4]; nude mice, imaged over 24 h): good clearance
λMeOH [5]: 785 nm
Compound: CC1(C)C(/C=C/C2=C(c3c(F)cc(F)cc3F)C(=C/C=C3/N(CCCS(=O)(=O)[O-])c4ccc(S(=O)(=O)[O-])cc4C3(C)C)/CC(C(=O)O)C2)=[N+](CCCS(=O)(=O)[O-])c2ccc(S(=O)(=O)[O-])cc21.[Na+].[Na+].[Na+] (stereo not drawn) [Compound 16]
Non-specific binding of the dye component alone [6]: Relatively high binding

Compound: CC1(C)C(/C=C/C2=C(Oc3ccc(S(=O)(=O)[O-])cc3)C(=C/C=C3/N(CCCCS(=O)(=O)[O-])c4ccc(S(=O)(=O)[O-])cc4C3(C)C)/CCC2)=[N+](CCCCCC(=O)NCCCOCCOCCOCCCN)c2ccc(S(=O)(=O)[O-])cc21.O=C(O)C(F)(F)F.[Na+].[Na+].[Na+] [Compound 32]
Peak fluorescence emission intensity [1]: 1343900

Peak fluorescence emission intensity [1]: 1203780
Compound: CC1(C)C(/C=C/C2=C(Oc3ccc(S(=O)(=O)[O-])cc3)C(=C/C=C3/N(CCCCCC(=O)NCCC(=O)N4Cc5ccccc5C#Cc5ccccc54)c4ccc(S(=O)(=O)[O-])cc4C3(C)C)/CCC2)=[N+](CCCCS(=O)(=O)[O-])c2ccc(S(=O)(=O)[O-])cc21.[Na+].[Na+].[Na+] [Compound 30]
